Assay results as given in article PMC7279002, “Novel 3′-Substituted-1′,2′,4′-Oxadiazole Derivatives of 18βH-Glycyrrhetinic Acid and Their O-Acylated Amidoximes: Synthesis and Evaluation of Antitumor and Anti-Inflammatory Potential In Vitro and In Vivo” (International Journal of Molecular Sciences, 2020).
Where two headings read alike, the source gives them in different places.

Key:
[1] = test system: human cervical carcinoma HeLa; experiment: MTT cytotoxicity assay, 48 h; format: cell-based; details: for IC50: MTT, 48 h, read-out: IC50, µM Cervix HeLa; for Selectivity index: HeLa: IC50 in hFF3 / IC50 in HeLa
Method: (§1) On the first step of the biological evaluation of novel GA derivatives 3a-h, 4a-h, and 5a-h, we analyzed their cytotoxicity in a panel of cultured mammalian cells, including human cervical carcinoma HeLa and KB-3-1, human duodenal carcinoma HuTu-80, human lung adenocarcinoma A549, murine melanoma B16 cell lines, and nontransformed human fibroblasts hFF3. The cells were treated with derivatives for 48 h and cell viability was evaluated by 3-(4, 5-dimethylthiazol-2-yl)-2, 5-diphenyltetrazolium bromide (MTT) assay. Since the studied compounds contain two types of functional groups at position 3-acetoxy- or the hydroxyl-group, 3-acetoxy-GA 1 and GA-Me were used as references. Additionally, hierarchical clustering of cytotoxic data was carried out in order to reveal groups of compounds with similar cytotoxic profiles (Figure 2A).
(§2) Human cervical carcinoma HeLa and KB-3-1 cells, human duodenal carcinoma HuTu-80 cells, and human lung adenocarcinoma A549 cells were obtained from the Russian Culture Collection (Institute of Cytology, RAS, St. Petersburg, Russia). Melanoma B16-F10 (hereafter, melanoma B16) cells were obtained from the Cell Culture Bank of the Blokhin National Medical Oncology Research Center (Moscow, Russia). Nonmalignant fibroblasts hFF3 and RAW264.7 macrophages were kindly provided by Dr. Olga A. Koval (Institute of Chemical Biology and Fundamental Medicine, SB RAS, Novosibirsk, Russia) and Prof. Dmitry Kuprash (Engelhardt Institute of Molecular Biology, RAS, Moscow, Russia), respectively. The cells were cultured in DMEM (Sigma-Aldrich Inc., St. Louis, MO, USA) supplemented with 10% (v/v) heat-inactivated fetal bovine serum (FBS) (BioloT, St. Petersburg, Russia) and antibiotic–antimycotic solution (100 U/mL penicillin, 100 µg/mL streptomycin, 0.25 µg/mL amphotericin). […] The cells were incubated at 37 °C in a humidified 5% CO2-containing air atmosphere (hereafter referred to as standard conditions). GA derivatives were dissolved in DMSO (stock solutions: 10 mM) and stored at −20 °C prior to use.
(§3) Cells were seeded in tetra- or pentaplicates in 96-well plates at a density of 10^4 (tumor cells and […] fibroblasts) or 10^5 (RAW264.7 cells) cells per well. Cells were incubated under standard conditions for 24 h, followed by their treatment with the investigated derivatives (0.5–50 µM) or corresponding concentrations of DMSO (control) for a further 48 h (tumor cells and fibroblasts) or 24 h (RAW264.7 cells). At the end of incubation period, 10 µL of MTT solution was added to the cells (final concentration: 0.5 mg/mL) and plates were incubated for an additional 2 h under standard conditions. Then, the MTT-containing medium was aspirated and formazan crystals formed in living cells were solubilized with 100 µL of DMSO. The absorbance of each well was read at test and reference wavelengths of 570 and 620 nm, respectively, on a Multiscan RC plate reader (Thermo LabSystems, Helsinki, Finland). The IC50 values (the concentration of compounds leading to a decrease of A570 to 50% of A570^control) were calculated by extrapolation of the dose–response curves. […] A heatmap of SI values was constructed by Microsoft Excel 2010.

[2] = test system: human cervical carcinoma KB-3-1; experiment: MTT cytotoxicity assay, 48 h; format: cell-based; details: for IC50: MTT, 48 h, read-out: IC50, µM Cervix KB-3-1; for Selectivity index: KB-3-1: IC50 in hFF3 / IC50 in KB-3-1
Method: as §1, §2, §3

[3] = test system: human duodenal carcinoma HuTu-80; experiment: MTT cytotoxicity assay, 48 h; format: cell-based; details: for IC50: MTT, 48 h, read-out: IC50, µM Duodenum HuTu-80; for Selectivity index: HuTu-80: IC50 in hFF3 / IC50 in HuTu-80
Method: as §1, §2, §3

[4] = test system: human lung adenocarcinoma A549; experiment: MTT cytotoxicity assay, 48 h; format: cell-based; details: for IC50: MTT, 48 h; for Selectivity index: A549: IC50 in hFF3 / IC50 in A549
Method: as §1, §2, §3

murine melanoma B16 = experiment: MTT cytotoxicity assay, 48 h; format: cell-based; details: for Selectivity index: B16: IC50 in hFF3 / IC50 in B16; for IC50: MTT, 48 h
Method: as §1, §2, §3

[5] = test system: nontransformed human fibroblasts hFF3; experiment: MTT cytotoxicity assay, 48 h; format: cell-based
Method: as §1, §2, §3

[6] = test system: HeLa, KB-3-1, HuTu-80, A549, B16 and hFF3 cells; experiment: MTT cytotoxicity, summary over the panel of cell lines; format: cell-based; details: for IC50: median over all tested cell lines, read-out: median IC50
Method: as §1, §3

[7] = Homo sapiens, HFF-3, read-out: IC50, µM Fibroblast hFF3

SMILES	IC50 ([1]; Homo sapiens, HeLa) [µM]	Selectivity index: HeLa [1]	IC50 ([2]; Homo sapiens, KB 3-1) [µM]	Selectivity index: KB-3-1 [2]	IC50 ([3]; Homo sapiens, HuTu80) [µM]	Selectivity index: HuTu-80 [3]	IC50 ([4]; Homo sapiens, A549) [µM]	Selectivity index: A549 [4]	Selectivity index: B16 (murine melanoma B16)	IC50 (murine melanoma B16; Mus musculus) [µM]	IC50 [5, 7] [µM]	IC50 [6] [µM]	melting point	IC50 [1] [µM]	IC50 [2] [µM]	IC50 [3] [µM]	IC50 [4] [µM]	IC50 (murine melanoma B16) [µM]	IC50 ([5]; read-out: IC50, µM Fibroblast hFF3) [µM]	median SI ([6]; in all tumor cells)
CC(C)c1noc([C@@]2(C)CC[C@]3(C)CC[C@]4(C)C(=CC(=O)C5[C@@]6(C)CC[C@H](O)C(C)(C)C6CC[C@]54C)[C@@H]3C2)n1 (stereo partly drawn) [Compound 5c, 30-nor-3β-hydroxy-11-oxo-20-(3′-isopropyl-1′,2′,4′-oxadiazol-5′-yl)-18βH-olean-12-en]	2.6 ± 0.1	2.2	5.9 ± 0.1	0.9	9.5 ± 0.5	0.6	4.5 ± 1.1	1.2	0.8	6.6 ± 0.1	5.6 ± 1	5.8	216.4 to 219.7 °C							
CC(=O)O[C@H]1CC[C@@]2(C)C(CC[C@]3(C)C2C(=O)C=C2[C@@H]4C[C@@](C)(C(=O)O/N=C(/N)c5ccccn5)CC[C@]4(C)CC[C@]23C)C1(C)C (stereo partly drawn) [Compound 3f]	6.4 ± 1	1.2	10.9 ± 2.2	0.7	6.9 ± 0.3	1.1	7.7 ± 1.8	1.0	0.3	22.5 ± 3.1	7.6 ± 1		165.8 °C (dec.)							
CC(=O)O[C@H]1CC[C@@]2(C)C(CC[C@]3(C)C2C(=O)C=C2[C@@H]4C[C@@](C)(C(=O)O)CC[C@]4(C)CC[C@]23C)C1(C)C (stereo partly drawn) [Compound 1, 3β-acetoxy-11-oxo-18βH-olean-12-en-29-oic acid, reference compound]	12.7 ± 1.1	1.1	7.4 ± 0.6	1.8	2.9 ± 0.1	4.7	15.9 ± 2.3	0.9	1.2	11.5 ± 1.5	13.6 ± 2.2									
CC(=O)O[C@H]1CC[C@@]2(C)C(CC[C@]3(C)C2C(=O)C=C2[C@@H]4C[C@@](C)(C(=O)O/N=C(/N)C(C)C)CC[C@]4(C)CC[C@]23C)C1(C)C (stereo partly drawn) [Compound 3c]	3 ± 0.2	0.9	4.9 ± 0.4	0.5	2.1 ± 0.2	1.2	2.6 ± 0.1	1.0	0.5	5.6 ± 0.2	2.6 ± 0.1		120.3 °C (dec.)							
CC(=O)O[C@H]1CC[C@@]2(C)C(CC[C@]3(C)C2C(=O)C=C2[C@@H]4C[C@@](C)(C(=O)O/N=C(/N)c5ccncc5)CC[C@]4(C)CC[C@]23C)C1(C)C (stereo partly drawn) [Compound 3h]	7.1 ± 1.4	1.6	7 ± 1.4	1.6	5.6 ± 0.1	2.0	7.1 ± 1.6	1.6	1.4	7.8 ± 1.9	11.1 ± 0.5		161.3 °C (dec.)							
CC/C(N)=N\OC(=O)[C@@]1(C)CC[C@]2(C)CC[C@]3(C)C(=CC(=O)C4[C@@]5(C)CC[C@H](OC(C)=O)C(C)(C)C5CC[C@]43C)[C@@H]2C1 (stereo partly drawn) [Compound 3b]	3.3 ± 0.2	0.9	6.7 ± 0.7	0.4	2.4 ± 0.2	1.2	7.3 ± 3	0.4	0.4	7.2 ± 0.6	2.9 ± 0.3		120 °C (dec.)							
CC(=O)O[C@H]1CC[C@@]2(C)C(CC[C@]3(C)C2C(=O)C=C2[C@@H]4C[C@@](C)(C(=O)O/N=C(/N)c5cccnc5)CC[C@]4(C)CC[C@]23C)C1(C)C (stereo partly drawn) [Compound 3g]	6.1 ± 1	1.4	10 ± 0.9	0.9	4.9 ± 0.3	1.7	5.6 ± 0.9	1.5	1.0	8.9 ± 1.1	8.5 ± 0.3		149.7 °C (dec.)							
CC(=O)O[C@H]1CC[C@@]2(C)C(CC[C@]3(C)C2C(=O)C=C2[C@@H]4C[C@@](C)(C(=O)O/N=C(/N)c5ccccc5)CC[C@]4(C)CC[C@]23C)C1(C)C (stereo partly drawn) [Compound 3e]	5.8 ± 0.8	1.3	16 ± 1.4	0.5	7.5 ± 0.1	1.0	4.9 ± 0.4	1.5	0.4	16.4 ± 0.7	7.3 ± 0.3		144.6 to 145 °C							
COC(=O)[C@@]1(C)CC[C@]2(C)CC[C@]3(C)C(=CC(=O)[C@@H]4[C@@]5(C)CC[C@H](O)C(C)(C)[C@@H]5CC[C@]43C)[C@@H]2C1 [GA-Me, reference compound]		6.1		10.9		10.9		8.2	10.9			1.1		0.9 ± 0.1	0.9 ± 0.1	1.6 ± 0.5	1.2 ± 0.1	0.9 ± 0.1	9.8 ± 1	10.9
CC1(C)C2CC[C@]3(C)C(C(=O)C=C4[C@@H]5C[C@@](C)(c6nc(-c7ccncc7)no6)CC[C@]5(C)CC[C@]43C)[C@@]2(C)CC[C@@H]1O (stereo partly drawn) [Compound 5h, 30-nor-3β-hydroxy-11-oxo-20-(3′-(pyridin-4′′-yl)-1′,2′,4′-oxadiazol-5′-yl)-18βH-olean-12-en]	3.5 ± 0.1	> 14.3	4.9 ± 0.3	> 10.2	4.7 ± 0.4	> 10.6	> 50			> 50	> 50		129.5 to 129.9 °C							
CC1(C)C2CC[C@]3(C)C(C(=O)C=C4[C@@H]5C[C@@](C)(c6nc(-c7cccnc7)no6)CC[C@]5(C)CC[C@]43C)[C@@]2(C)CC[C@@H]1O (stereo partly drawn) [Compound 5g, 30-nor-3β-hydroxy-11-oxo-20-(3′-(pyridin-3′′-yl)-1′,2′,4′-oxadiazol-5′-yl)-18βH-olean-12-en]	4.6 ± 0.3	> 10.9	16.9 ± 1.4	> 3.0	4.7 ± 0.2	> 10.6	> 50			> 50	> 50		231.6 °C (dec.)							
